Measured values from patent US20240309038A1, “NOVEL GALACTOSIDE INHIBITOR OF GALECTINS” (GALECTO BIOTECH AB, priority 2020, published 2024).

target: Gal-3 (Homo sapiens, UniProt P17931); assay: Fluorescence anisotropy assay, inhibition of galectin / fluorescein tagged saccharide probe interaction; format: binding
Method: The affinity of Example 1-59 for galectins were determined by a fluorescence anisotropy assay where the compound was used as an inhibitor of the interaction between galectin and a fluorescein tagged saccharide probe as described Sörme, P., Kahl-Knutsson, B., Huflejt, M., Nilsson, U. J., and Leffler H. (2004) Fluorescence polarization as an analytical tool to evaluate galectin-ligand interactions. Anal. Biochem. 334: 36-47, (Sarme et al., 2004)

Gal-3, sequence (P17931 whole entry, species assumed): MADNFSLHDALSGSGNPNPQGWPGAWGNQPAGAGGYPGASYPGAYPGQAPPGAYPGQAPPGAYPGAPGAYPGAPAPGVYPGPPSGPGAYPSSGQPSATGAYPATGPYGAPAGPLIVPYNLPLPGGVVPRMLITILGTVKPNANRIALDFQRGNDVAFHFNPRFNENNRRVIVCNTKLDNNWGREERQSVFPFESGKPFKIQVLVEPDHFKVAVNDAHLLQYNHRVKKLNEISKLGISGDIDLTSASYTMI

Structure (SMILES)	Kd [µM]
Cc1nc([C@@H]2OC(CO)[C@H](O)C(n3cc(-c4cc(F)c(F)c(F)c4)cn3)C2O)n(-c2cc(Cl)c3nc(C)sc3c2)n1 (stereo in doubt) [Example 41, 4-Chloro-6-{5-{3-deoxy-3-[4-(3,4,5-trifluorophenyl)-1H-1,2-pyrazol-1-yl]-β-D-galactopyranosyl}-3-methyl-1H-1,2,4-triazol-1-yl}-2-methylbenzothiazole]	0.01
Cc1nc([C@@H]2OC(CO)[C@H](O)C(n3cc(-c4cc(F)c(F)c(F)c4)cn3)C2O)n(-c2cc(Cl)cnc2C(F)(F)F)n1 (stereo in doubt) [Example 20, 5-Chloro-3-{5-{3-deoxy-3-[4-(3,4,5-trifluorophenyl)-1H-1,2-pyrazol-1-yl]-β-D-galactopyranosyl}-3-methyl-1H-1,2,4-triazol-1-yl}-2-(trifluoromethyl)pyridine]	0.011
Cc1nc([C@@H]2OC(CO)[C@H](O)C(n3cc(-c4cc(F)c(F)c(F)c4)c(-c4ccccc4C)n3)C2O)n(-c2cc(Cl)ccc2C(F)(F)F)n1 (stereo in doubt) [Example 53, 5-Chloro-1-{5-{3-deoxy-3-[4-(3,4,5-trifluorophenyl)-3-(2-methylphenyl)-1H-1,2-pyrazol-1-yl]-β-D-galactopyranosyl}-3-methyl-1H-1,2,4-triazol-1-yl}-2-(trifluoromethyl)benzene]	0.092
Cc1nc([C@@H]2OC(CO)[C@H](O)C(n3cc(-c4cccc(Cl)c4)cn3)C2O)n(-c2cc(Cl)ccc2C(F)(F)F)n1 (stereo in doubt) [Example 58, 1-{5-{3-[4-(3-Chlorophenyl)-1H-1,2-pyrazol-1-yl]-3-deoxy-β-D-galactopyranosyl}-3-methyl-1H-1,2,4-triazol-1-yl}-5-chloro-2-(trifluoromethyl)benzene]	0.097
Cc1nc([C@@H]2OC(CO)[C@H](O)C(n3cc(-c4cc(F)c(F)c(F)c4)cn3)C2O)n(-c2cc3sc(C)nc3cc2Br)n1 (stereo in doubt) [Example 43, 5-Bromo-6-{5-{3-deoxy-3-[4-(3,4,5-trifluorophenyl)-1H-1,2-pyrazol-1-yl]-β-D-galactopyranosyl}-3-methyl-1H-1,2,4-triazol-1-yl}-2-methylbenzothiazole]	0.011
Cc1nc([C@@H]2OC(CO)[C@H](O)C(n3cc(-c4cc(F)c(F)c(F)c4)cn3)C2O)n(-c2cc(Cl)ccc2C#N)n1 (stereo in doubt) [Example 27, 5-Chloro-2-cyano-1-{5-{3-deoxy-3-[4-(3,4,5-trifluorophenyl)-1H-1,2-pyrazol-1-yl]-β-D-galactopyranosyl}-3-methyl-1H-1,2,4-triazol-1-yl}benzene]	0.037
Cc1nc([C@@H]2OC(CO)[C@H](O)C(n3cc(-c4cc(F)c(F)c(F)c4)cn3)C2O)n(-c2ccc3nc(C)sc3c2Cl)n1 (stereo in doubt) [Example 40, 7-Chloro-6-{5-{3-deoxy-3-[4-(3,4,5-trifluorophenyl)-1H-1,2-pyrazol-1-yl]-β-D-galactopyranosyl}-3-methyl-1H-1,2,4-triazol-1-yl}-2-methylbenzothiazole]	0.26
CCc1nc2ccc(-n3nc(C)nc3[C@@H]3OC(CO)[C@H](O)C(n4cc(-c5cc(F)c(F)c(F)c5)cn4)C3O)cc2s1 (stereo in doubt) [Example 35, 6-{5-{3-Deoxy-3-[4-(3,4,5-trifluorophenyl)-1H-1,2-pyrazol-1-yl]-β-D-galactopyranosyl}-3-methyl-1H-1,2,4-triazol-1-yl}-2-ethylbenzothiazole]	0.012
Cc1nc([C@@H]2OC(CO)[C@H](O)C(n3cc(-c4cc(F)c(F)c(F)c4)cn3)C2O)n(-c2cc(-c3cc(F)c(F)c(F)c3)ccc2C(F)(F)F)n1 (stereo in doubt) [Example 4, 1-{5-{3-Deoxy-3-[4-(3,4,5-trifluorophenyl)-1H-1,2-pyrazol-1-yl]-β-D-galactopyranosyl}-3-methyl-1H-1,2,4-triazol-1-yl}-2-(trifluoromethyl)-2-(3,4,5-trifluorophenyl)benzene]	0.2
Cc1nc([C@@H]2OC(CO)[C@H](O)C(n3cc(-c4cc(F)c(F)c(F)c4)c(-c4ccccc4)n3)C2O)n(-c2cc(Cl)ccc2C(F)(F)F)n1 (stereo in doubt) [Example 47, 5-Chloro-1-{5-{3-deoxy-3-[4-(3,4,5-trifluorophenyl)-3-phenyl-1H-1,2-pyrazol-1-yl]-β-D-galactopyranosyl}-3-methyl-1H-1,2,4-triazol-1-yl}-2-(trifluoromethyl)benzene]	0.08
C#Cc1c(F)cc(-c2cnn(C3C(O)[C@H](c4nc(C)nn4-c4cc(Cl)ccc4C(F)(F)F)OC(CO)[C@@H]3O)c2)cc1F (stereo in doubt) [Example 17, 5-Chloro-1-{5-{3-deoxy-3-[4-(4-ethynyl-3,5-difluorophenyl)-1H-1,2-pyrazol-1-yl]-β-D-galactopyranosyl}-3-methyl-1H-1,2,4-triazol-1-yl}-2-(trifluoromethyl)benzene]	0.06
Cc1nc([C@@H]2OC(CO)[C@H](O)C(n3cc(-c4cc(F)c(F)c(F)c4)cn3)C2O)n(-c2cc(C#N)c3nc(C)sc3c2)n1 (stereo in doubt) [Example 42, 4-Cyano-6-{5-{3-deoxy-3-[4-(3,4,5-trifluorophenyl)-1H-1,2-pyrazol-1-yl]-β-D-galactopyranosyl}-3-methyl-1H-1,2,4-triazol-1-yl}-2-methylbenzothiazole]	0.012
Cc1nc([C@@H]2OC(CO)[C@H](O)C(n3cc(-c4cc(F)ccn4)cn3)C2O)n(-c2cc(Cl)ccc2C(F)(F)F)n1 (stereo in doubt) [Example 7, 5-Chloro-1-{5-{3-deoxy-3-[4-(4-fluoropyridin-2-yl)-1H-1,2-pyrazol-1-yl]-β-D-galactopyranosyl}-3-methyl-1H-1,2,4-triazol-1-yl}-2-(trifluoromethyl)benzene]	0.082
Cc1nc([C@@H]2OC(CO)[C@H](O)C(n3cc(-c4cc(F)c(F)c(F)c4)cn3)C2O)n(-c2cc(Br)cnc2C(F)(F)F)n1 (stereo in doubt) [Example 25, 5-Bromo-3-{5-{3-deoxy-3-[4-(3,4,5-trifluorophenyl)-1H-1,2-pyrazol-1-yl]-β-D-galactopyranosyl}-3-methyl-1H-1,2,4-triazol-1-yl}-2-(trifluoromethyl)pyridine]	0.011
Cc1nc([C@@H]2OC(CO)[C@H](O)C(n3cc(-c4cc(C)c(Cl)cn4)cn3)C2O)n(-c2cc(Cl)ccc2C(F)(F)F)n1 (stereo in doubt) [Example 16, 1-{5-{3-[4-(5-Chloro-4-methylpyridin-2-yl)-1H-1,2-pyrazol-1-yl]-3-deoxy-β-D-galactopyranosyl}-3-methyl-1H-1,2,4-triazol-1-yl}-5-chloro-2-(trifluoromethyl)benzene]	0.14
CCOC(=O)c1nn(C2C(O)[C@H](c3nc(C)nn3-c3cc(Cl)ccc3C(F)(F)F)OC(CO)[C@@H]2O)cc1-c1cc(F)c(Cl)c(F)c1 (stereo in doubt) [Example 29, 1-{5-{3-[4-(4-Chloro-3,5-difluorophenyl)-3-ethoxycarbonyl-1H-1,2-pyrazol-1-yl]-3-deoxy-β-D-galactopyranosyl}-3-methyl-1H-1,2,4-triazol-1-yl}-5-chloro-2-(trifluoromethyl)benzene]	0.028
Cc1nc([C@@H]2OC(CO)[C@H](O)C(n3cc(-c4cc(F)c(F)c(F)c4)cn3)C2O)n(-c2ccc3nc(C(F)(F)F)sc3c2)n1 (stereo in doubt) [Example 36, 6-{5-{3-Deoxy-3-[4-(3,4,5-trifluorophenyl)-1H-1,2-pyrazol-1-yl]-β-D-galactopyranosyl}-3-methyl-1H-1,2,4-triazol-1-yl}-2-(trifluoromethyl)benzothiazole]	0.23
Cc1nc([C@@H]2OC(CO)[C@H](O)C(n3cc(-c4cc(F)c(F)c(F)c4)cn3)C2O)n(-c2cc(C#N)ccc2C(F)(F)F)n1 (stereo in doubt) [Example 46, 5-Cyano-1-{5-{3-deoxy-3-[4-(3,4,5-trifluorophenyl)-1H-1,2-pyrazol-1-yl]-β-D-galactopyranosyl}-3-methyl-1H-1,2,4-triazol-1-yl}-2-(trifluoromethyl)benzene]	0.019
Cc1nc([C@@H]2OC(CO)[C@H](O)C(n3cc(-c4cc(F)c(F)c(F)c4)cn3)C2O)n(-c2cc(Cl)cnc2C#N)n1 (stereo in doubt) [Example 21, 5-Chloro-2-cyano-3-{5-{3-deoxy-3-[4-(3,4,5-trifluorophenyl)-1H-1,2-pyrazol-1-yl]-β-D-galactopyranosyl}-3-methyl-1H-1,2,4-triazol-1-yl}pyridine]	0.082
Cc1nc([C@@H]2OC(CO)[C@H](O)C(n3cc(-c4cc(F)c(Cl)c(F)c4)c(C#N)n3)C2O)n(-c2cc(Cl)ccc2C(F)(F)F)n1 (stereo in doubt) [Example 31, 1-{5-{3-[4-(4-Chloro-3,5-difluorophenyl)-3-cyano-1H-1,2-pyrazol-1-yl]-3-deoxy-β-D-galactopyranosyl}-3-methyl-1H-1,2,4-triazol-1-yl}-5-chloro-2-(trifluoromethyl)benzene]	0.012
Cc1nc2ccc(-n3cnnc3[C@@H]3OC(CO)[C@H](O)C(n4cc(-c5cc(F)c(F)c(F)c5)cn4)[C@@H]3O)cc2s1 (stereo partly drawn) [Example 2, 6-{3-{3-Deoxy-3-[4-(3,4,5-trifluorophenyl)-1H-1,2-pyrazol-1-yl]-β-D-galactopyranosyl}-4H-1,2,4-triazol-4-yl}-2-methylbenzothiazole]	0.039
Cc1nc([C@@H]2OC(CO)[C@H](O)C(n3cc(-c4cc(F)c(F)c(F)c4)cn3)C2O)n(-c2cc3sc(C)nc3cc2F)n1 (stereo in doubt) [Example 37, 6-{5-{3-Deoxy-3-[4-(3,4,5-trifluorophenyl)-1H-1,2-pyrazol-1-yl]-β-D-galactopyranosyl}-3-methyl-1H-1,2,4-triazol-1-yl}-5-fluoro-2-methylbenzothiazole]	0.016
Cc1nc([C@@H]2OC(CO)[C@H](O)C(n3cc(-c4cc(F)c(F)c(F)c4)cn3)C2O)n(-c2cc(Br)ccc2C#N)n1 (stereo in doubt) [Example 26, 5-Bromo-2-cyano-1-{5-{3-deoxy-3-[4-(3,4,5-trifluorophenyl)-1H-1,2-pyrazol-1-yl]-β-D-galactopyranosyl}-3-methyl-1H-1,2,4-triazol-1-yl}benzene]	0.015
